Test results published in patent publication US20080311092A1, “Murine Stem Cells and Applications Thereof” (priority 2005, published 2008).
“Also recorded” adds a separate entry of the source. Read-outs that look alike come from different tables or passages of the source.

How the values were obtained:
[1] = system: B cell acute lymphoblastic leukaemia (B-ALL); details: BCR-ABLp210 mouse model, not stem-cell targeted; cited from earlier work
human CML = details: cited from earlier work; for Outcome of treatment in human CML: humans
human lymphomas = details: humans; cited from earlier work
[2] = system: diffuse large B-cell lymphoma; assay: Doxorubicin treatment of Sca1/BCL6 cancer stem cell model mice, cell counting; assay type: in vivo, mouse
Description: DXR (doxorubicin) was dosed at 7 mg/kg. […] Drugs were dissolved in water and delivered intravenously. Water was used as placebo.

lung cancer = assay: Doxorubicin treatment of Sca1/hKRAS CSC model lung cancer mice, survival study; assay type: in vivo, mouse; details: for Outcome of treatment in the lung cancer CSC mouse model: Sca1/hKRAS mice
Description: DXR (doxorubicin) was dosed at 7 mg/kg. The administration scheme was every 7th day, 3 times—q7dx3—for a duration of 4-5 weeks. Drugs were dissolved in water and delivered intravenously. Water was used as placebo.

human lung cancer = details: humans; cited from earlier work
Sca1-positive cells = assay: Ganciclovir treatment of Sca1-BCL6-IRES-HVTK mice; assay type: in vivo, mouse
Description: (§1) Ganciclovir: stock solutions were prepared following the SIGMA indications. The regimen was 100 mg/kg/day by intraperitoneal injection for 14 days. The placebo was an equal volume of diluent water/normal saline.
CSC mouse cancer models (Sca1-HVTK-IRES-BCR-ABLp210 and Sca1-BCL6-IRES-HVTK mice) were used to address the question of whether the selective ablation of Sca1-positive cells is effective in the therapy of cancer.
(§2) The mice were treated either with ganciclovir (GCV) or with placebo, as described under materials and methods. For each mouse model, 60 mice were injected daily with ganciclovir, and 30 mice were used as a control and injected daily with saline (placebo).

CSC that express BCR-ABL = assay: Ganciclovir treatment of PLy6-HSVtk-IRES-BCRABLp210 (Sca1-IRES-HVTK-BCR-ABL p210) mice; assay type: in vivo, mouse; details: for Disappearance of cancers / tumour burden on GCV treatment: PLy6-HSVtk-IRES-BCRABLp210 mice, 100% with tumours at start, 60 mice injected daily with GCV (100 mg/kg/day i.p.)
Description: PLy6-HSVtk-IRES-BCRABLp210 mice were used to test the effectiveness of GCV-induced cell death in CSC that express BCR-ABL. GCV, after preliminary testing, was administered at a dose of 100 mg/kg/day by i.p. injection for 14 days. This dose has been reported to kill cells expressing HSV-tk in transgenic mice (Bush TG. Cell 1998, 93: 189-201). Dosing started when the mice were leukaemic. A control group was given injections of normal saline.
as §1
30 mice were used as a control and were subjected daily with saline solution whereas the 60 remaining mice were injected daily with GCV as described in method section.
as §2

In the case of Cc1ccc(NC(=O)c2ccc(CN3CCN(C)CC3)cc2)cc1Nc1nccc(-c2cccnc2)n1 [Gleevec™, imatinib], the “Outcome of treatment in conventional mouse B-ALL model” value [1] is given as “cures the cancer”, the “Effect on leukaemic stem cells in humans” value (human CML; Michor F et al. Nature (2005)) is given as “does not deplete leukaemic stem cells” and the “Outcome of treatment in human CML” value (human CML) is given as “only gives symptomatic relief; also recorded: typically relapse”. The “Outcome of treatment in human CML” value (human CML; listed as Gleevec) was “provides symptomatic relief”.
In the case of COc1cccc2c1C(=O)c1c(O)c3c(c(O)c1C2=O)C[C@@](O)(C(=O)CO)C[C@@H]3O[C@H]1C[C@H](N)[C@H](O)[C@H](C)O1 [doxorubicin], the “Outcome of treatment in human lymphoma / DLBCL patients” value (human lymphomas) is listed as “virtually all human lymphoma patients treated with doxorubicin relapse”, the “Outcome of treatment of diffuse large B-cell lymphoma in CSC mice” value ([2]; Sca1/BCL6 CSC mouse model) is listed as “ineffective; also recorded: unsuccessful” and the “Change in number of B cells” value ([2]; Sca1/BCL6 mice, 3-5 month course of doxorubicin treatment) is listed as “decreased or increased slightly”. For the same compound, the “Factor by which the number of CSC increased” value ([2]; Sca1/BCL6 mice, over three months of doxorubicin treatment) was 7-8, the “Survival: none of the treated mice survived longer than” value (lung cancer; CSC model lung cancer mice, doxorubicin 7 mg/kg i.v. q7dx3) was no more than 20 weeks and the “Outcome of treatment in the lung cancer CSC mouse model” value (lung cancer) was “ineffective; also recorded: unsuccessful”. For the same compound, the “Outcome of treatment in the lung cancer CSC mouse model” value (lung cancer; listed as Doxorubicin) was “also unsuccessful” and the “Outcome of treatment of human lung cancer” value (human lung cancer) was “unsuccessful”.
In the case of Nc1nc(O)c2ncn(COC(CO)CO)c2n1 [ganciclovir], the “Time to elimination of all tumours” value (Sca1-positive cells; Sca1-BCL6-IRES-HVTK mice, 60 mice injected daily with ganciclovir) is reported as 10 weeks, the “Tumour recurrence during additional monitoring” value (Sca1-positive cells; additional 11 weeks of monitoring) is reported as “no tumour recurrence was observed” and the “Tumour recurrence during further monitoring” value (CSC that express BCR-ABL; 8 weeks of further monitoring) is reported as “did not recur”. For the same compound, the “Time of treatment after which tumours disappeared completely” value (CSC that express BCR-ABL; 60 Sca1-IRES-HVTK-BCR-ABL p210 mice treated with ganciclovir) was 8 weeks, the “Disappearance of cancers / tumour burden on GCV treatment” value (CSC that express BCR-ABL; listed as GCV) was “cancers disappeared completely” and the “Disappearance of cancers / tumour burden on GCV treatment” value (CSC that express BCR-ABL; listed as Gancyclovir) was “complete reduction of tumour burden”. The “Tumour recurrence (CML and solid tumours) after GCV treatment” value (CSC that express BCR-ABL; additional 3 months of observation after cancers disappeared) was “no tumour recurrence was observed”.
